{"source": "patent US12215092B2", "about": "“Pleiotropic pathway modifier compounds and method of treating diseases” (PPM BIOPHARMA LLC, priority 2023, dated 2025)", "key": {"c-MYC": {"molecular_target": "c-MYC (Homo sapiens, UniProt P01106)", "sequence (P01106 whole entry)": "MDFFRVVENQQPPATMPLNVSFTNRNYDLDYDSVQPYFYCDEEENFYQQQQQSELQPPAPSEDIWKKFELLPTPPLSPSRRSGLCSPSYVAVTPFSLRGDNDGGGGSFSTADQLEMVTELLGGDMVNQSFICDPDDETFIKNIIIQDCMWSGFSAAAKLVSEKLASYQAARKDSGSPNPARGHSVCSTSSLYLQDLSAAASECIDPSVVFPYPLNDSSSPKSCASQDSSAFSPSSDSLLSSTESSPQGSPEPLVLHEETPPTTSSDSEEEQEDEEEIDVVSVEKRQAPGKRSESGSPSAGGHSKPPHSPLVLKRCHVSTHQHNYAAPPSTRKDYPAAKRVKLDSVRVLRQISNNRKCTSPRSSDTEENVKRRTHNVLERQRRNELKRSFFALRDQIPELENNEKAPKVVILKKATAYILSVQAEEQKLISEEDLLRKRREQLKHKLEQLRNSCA", "assay": "Automatic Western blot (Simple Western), targeted protein degradation: c-MYC", "format": "cell-based", "conditions": "for c-MYC in H929 cells (targeted protein degradation / expression): H929 human myeloma cells", "protocol": "(§1) Targeted protein degradation in test samples were determined using the automated capillary-based nanoproteomic immunoassay Simple Western System (Protein Simple). Cultured cells were washed with cold PBS once and lysed in cold RIPA buffer supplemented with protease and phosphatase inhibitors. The solutions were then incubated at 4° C. for 30 minutes with gentle agitation to fully lyse cells. Each test sample was diluted at 0.4 mg/ml and mixed with 5× reducing buffer with fluorescent molecular weight (MW) standards. Afterwards the samples were heated to 95° C. for 5 minutes, and 5 μL samples were loaded into each capillary tube. Proteins were passed and separated through stacking and separation matrices for 30 minutes at 250 V. Proteins were then immobilized to capillary walls using optimal photoactivated capture chemistry. Following proteins immobilization, capillaries were flushed with a wash buffer and incubated with a blocking reagent for 6 min. Each target protein was probed with a specific primary antibody (diluted in blocking buffer and incubated for 38 min) and a horseradish peroxidase (HRP)-conjugated secondary antibody (ready to use solutions, incubated for 23 min). A mixture of luminol and peroxide was added following manufacturer's protocol. The resulting chemiluminescent signal was captured by a CCD camera, and signal intensities were analyzed using Compass Software (Protein Simple).\n(§2) 1H929 or Jurkat cells were treated with DMSO, the positive control pomalidomide (an FDA-approved immunomodulatory agent) or the selected test compound (compound 4) at indicated concentrations (0.001-10 μM) for 24 hours. […] Ikaros and other proteins (Table 1),"}, "[1]": {"test_system": "human hematopoietic cancer cells", "assay": "Cancer cell proliferation assay (CellTiter-Glo), blood cancer cells", "format": "cell-based", "conditions": "3 days, concentration-dependent (FIG. 2)", "protocol": "(§3) The cell proliferation of cancer cells was assessed using the CellTiter-Glo Luminescent Cell Viability Assay (Promega), per the manufacturer's protocol.\n(§4) Briefly, in 96-well flat-bottom white-walled multiwell cell culture plates the control wells containing 100 μL/well medium without cells were used to obtain a value for background luminescence. For treatment wells, cells were seeded at 5,000 in 50 μL/well of complete RPMI-1640 medium and then mixed with 50 μL/well of the vehicle control (0.1% DMSO) or test compounds at indicated concentrations. Following cell incubation for 3 days at 37° C. in a humidified 5% CO2 incubator, the plates were equilibrated at room temperature for approximately 30 minutes. 100 μL of CellTiter-Glo® Reagent were added into each well and then contents were mixed for 2 minutes on an orbital plate shaker to induce cell lysis. After the plates were incubated at room temperature for 10 minutes, luminescent signals of each well were recorded with a Tecan M200 Plate Reader (Tecan Trading AG, Switzerland).\n(§5) The following human cancer cells originated from various tissues were used to test the antiproliferative activity of PPM compounds (Table 2). […] The EC50 values for each test compounds were calculated using GraphPad Prizm. […]"}, "Eos": {"molecular_target": "Eos (Homo sapiens, UniProt Q9H2S9)", "sequence (Q9H2S9 whole entry)": "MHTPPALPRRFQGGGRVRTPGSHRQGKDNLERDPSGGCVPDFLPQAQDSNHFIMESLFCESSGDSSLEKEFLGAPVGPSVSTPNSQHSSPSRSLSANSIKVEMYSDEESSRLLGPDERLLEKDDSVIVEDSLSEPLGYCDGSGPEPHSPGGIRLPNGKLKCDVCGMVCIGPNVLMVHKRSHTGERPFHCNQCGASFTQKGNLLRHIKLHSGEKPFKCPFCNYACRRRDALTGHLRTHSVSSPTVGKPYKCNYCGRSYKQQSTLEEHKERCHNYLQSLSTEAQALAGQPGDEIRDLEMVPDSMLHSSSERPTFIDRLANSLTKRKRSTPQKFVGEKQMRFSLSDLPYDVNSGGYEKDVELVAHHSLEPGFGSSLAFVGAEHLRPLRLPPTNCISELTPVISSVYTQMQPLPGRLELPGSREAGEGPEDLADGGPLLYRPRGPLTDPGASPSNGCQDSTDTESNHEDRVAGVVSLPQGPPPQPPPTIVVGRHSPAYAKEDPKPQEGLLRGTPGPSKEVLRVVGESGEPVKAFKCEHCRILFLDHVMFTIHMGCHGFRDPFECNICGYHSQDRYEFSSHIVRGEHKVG", "assay": "Automatic Western blot (Simple Western), targeted protein degradation: Eos", "format": "cell-based", "conditions": "0.001-10 μM, 24 hours", "protocol": "(§6) Targeted protein degradation in test samples were determined using the automated capillary-based nanoproteomic immunoassay Simple Western System (Protein Simple). Cultured cells were washed with cold PBS once and lysed in cold RIPA buffer supplemented with protease and phosphatase inhibitors. The solutions were then incubated at 4° C. for 30 minutes with gentle agitation to fully lyse cells. Each test sample was diluted at 0.4 mg/ml and mixed with 5× reducing buffer with fluorescent molecular weight (MW) standards. Afterwards the samples were heated to 95° C. for 5 minutes, and 5 μL samples were loaded into each capillary tube. Proteins were passed and separated through stacking and separation matrices for 30 minutes at 250 V. Proteins were then immobilized to capillary walls using optimal photoactivated capture chemistry. Following proteins immobilization, capillaries were flushed with a wash buffer and incubated with a blocking reagent for 6 min. Each target protein was probed with a specific primary antibody (diluted in blocking buffer and incubated for 38 min) and a horseradish peroxidase (HRP)-conjugated secondary antibody (ready to use solutions, incubated for 23 min). […] The resulting chemiluminescent signal was captured by a CCD camera, and signal intensities were analyzed using Compass Software (Protein Simple). […]"}, "target protein": {"test_system": "target protein", "assay": "Targeted protein degradation in H929 and Jurkat cells (overall statement)", "format": "cell-based", "conditions": "H929 human multiple myeloma cells and Jurkat human leukemia cells, concentration dependent", "protocol": "as §6"}, "CRBN": {"molecular_target": "CRBN (Homo sapiens, UniProt Q96SW2)", "sequence (Q96SW2 whole entry)": "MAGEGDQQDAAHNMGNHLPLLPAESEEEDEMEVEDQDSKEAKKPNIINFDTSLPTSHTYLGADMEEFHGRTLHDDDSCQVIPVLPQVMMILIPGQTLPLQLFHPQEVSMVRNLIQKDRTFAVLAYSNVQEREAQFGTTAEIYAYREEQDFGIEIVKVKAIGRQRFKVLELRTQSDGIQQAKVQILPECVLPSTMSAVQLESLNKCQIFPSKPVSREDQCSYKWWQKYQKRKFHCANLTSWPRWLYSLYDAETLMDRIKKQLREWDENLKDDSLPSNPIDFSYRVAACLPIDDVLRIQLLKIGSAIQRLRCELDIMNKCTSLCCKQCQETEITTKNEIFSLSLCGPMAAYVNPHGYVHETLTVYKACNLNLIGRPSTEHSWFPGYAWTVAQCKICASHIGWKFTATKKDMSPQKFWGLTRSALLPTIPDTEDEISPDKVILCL", "assay": "Automatic Western blot (Simple Western), targeted protein degradation: CRBN", "format": "cell-based", "conditions": "0.001-10 μM, 24 hours", "protocol": "as §6"}, "Aiolos": {"molecular_target": "Aiolos (Homo sapiens, UniProt Q9UKT9)", "sequence (Q9UKT9 whole entry)": "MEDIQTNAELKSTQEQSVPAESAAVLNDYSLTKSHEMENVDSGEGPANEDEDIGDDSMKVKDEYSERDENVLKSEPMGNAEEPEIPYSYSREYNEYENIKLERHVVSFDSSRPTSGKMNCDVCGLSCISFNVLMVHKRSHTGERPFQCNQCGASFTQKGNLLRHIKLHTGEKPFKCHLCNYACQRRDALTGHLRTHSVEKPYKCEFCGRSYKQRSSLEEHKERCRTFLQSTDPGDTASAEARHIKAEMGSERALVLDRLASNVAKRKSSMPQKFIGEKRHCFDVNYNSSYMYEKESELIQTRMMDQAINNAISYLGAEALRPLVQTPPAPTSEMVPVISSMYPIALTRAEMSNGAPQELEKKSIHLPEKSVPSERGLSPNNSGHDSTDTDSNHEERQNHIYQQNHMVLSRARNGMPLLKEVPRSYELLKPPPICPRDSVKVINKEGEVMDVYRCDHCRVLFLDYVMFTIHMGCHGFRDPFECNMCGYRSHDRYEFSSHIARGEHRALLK", "assay": "Automatic Western blot (Simple Western), targeted protein degradation: Aiolos", "format": "cell-based", "conditions": "0.001-10 μM, 24 hours", "protocol": "as §6"}, "GAPDH": {"test_system": "GAPDH", "assay": "Automatic Western blot (Simple Western): GAPDH (sample loading control)", "format": "cell-based, human", "conditions": "0.001-10 μM, 24 hours", "protocol": "as §1, §2"}, "[2]": {"test_system": "human solid tissue cancer cells", "assay": "Cancer cell proliferation assay (CellTiter-Glo), solid tumors", "format": "cell-based", "conditions": "3 days, concentration-dependent (FIG. 1)", "protocol": "as §3, §4, §5"}, "Ikaros": {"molecular_target": "Ikaros (Homo sapiens, UniProt Q13422)", "sequence (Q13422 whole entry)": "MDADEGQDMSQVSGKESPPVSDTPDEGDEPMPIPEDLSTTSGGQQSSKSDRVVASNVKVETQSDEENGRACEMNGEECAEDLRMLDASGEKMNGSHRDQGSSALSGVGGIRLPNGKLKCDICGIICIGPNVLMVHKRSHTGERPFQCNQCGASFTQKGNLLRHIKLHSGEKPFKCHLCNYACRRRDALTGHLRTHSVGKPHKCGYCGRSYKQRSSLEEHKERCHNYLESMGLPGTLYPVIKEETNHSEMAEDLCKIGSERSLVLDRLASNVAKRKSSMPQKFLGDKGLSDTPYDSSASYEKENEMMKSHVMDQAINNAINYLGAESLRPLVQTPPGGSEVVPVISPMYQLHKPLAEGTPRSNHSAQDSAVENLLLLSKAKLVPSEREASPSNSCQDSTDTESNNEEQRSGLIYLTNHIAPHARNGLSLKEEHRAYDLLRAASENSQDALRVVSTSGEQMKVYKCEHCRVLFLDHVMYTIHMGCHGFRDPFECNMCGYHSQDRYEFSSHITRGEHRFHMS", "assay": "Automatic Western blot (Simple Western), targeted protein degradation: Ikaros", "format": "cell-based", "conditions": "0.001-10 μM, 24 hours", "protocol": "as §1, §2"}, "HDAC2": {"molecular_target": "HDAC2 (Homo sapiens, UniProt Q92769)", "sequence (Q92769 whole entry)": "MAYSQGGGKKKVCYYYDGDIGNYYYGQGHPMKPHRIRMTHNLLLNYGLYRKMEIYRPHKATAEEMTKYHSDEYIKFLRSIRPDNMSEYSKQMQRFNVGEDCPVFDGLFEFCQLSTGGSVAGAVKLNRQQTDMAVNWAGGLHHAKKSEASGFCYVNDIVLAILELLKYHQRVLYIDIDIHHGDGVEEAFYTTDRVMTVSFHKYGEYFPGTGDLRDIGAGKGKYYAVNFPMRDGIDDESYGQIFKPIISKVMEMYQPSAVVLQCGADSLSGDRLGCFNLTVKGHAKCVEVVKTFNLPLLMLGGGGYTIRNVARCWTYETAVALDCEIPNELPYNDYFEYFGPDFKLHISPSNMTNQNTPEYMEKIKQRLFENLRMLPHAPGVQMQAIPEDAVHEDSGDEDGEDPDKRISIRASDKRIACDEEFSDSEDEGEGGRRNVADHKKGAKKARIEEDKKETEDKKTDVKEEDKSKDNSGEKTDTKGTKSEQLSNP", "assay": "Automatic Western blot (Simple Western), targeted protein degradation: HDAC2", "format": "cell-based", "conditions": "0.001-10 μM, 24 hours", "protocol": "as §1, §2"}, "HDAC": {"test_system": "HDAC", "assay": "In situ HDAC activity fluorometric assay in cancer cells", "format": "cell-based, human", "conditions": "24 h treatment, concentration dependent (FIG. 8)", "protocol": "In Situ HDAC Activity Fluorometric Kit was purchased from Abcam and performed according to the manufacturer instructions. The cells (20,000) were seeded in a black walled 96-well plate and let to adhere overnight, then treated with DMSO or PPM compounds at indicated concentrations for 24 hrs. The media was then replaced with an HDAC substrate (acetylated peptide) dissolved in media and cells incubated for 3 hrs under cell culture conditions, followed by addition of the developer for 30 min to stop the reaction. The fluorescence was measured at Ex/Em=368/442 nm."}, "Poly (I:C) induced PBMC": {"test_system": "Poly (I:C) induced PBMC", "assay": "Luminex-based multiplex cytokine assay, Poly (I:C) induced PBMC", "format": "cell-based, human", "conditions": "concentration-dependent (FIG. 5)"}, "LPS induced PBMC": {"test_system": "LPS induced PBMC", "assay": "Luminex-based multiplex cytokine assay, LPS induced PBMC", "format": "cell-based, human", "conditions": "concentration-dependent (FIG. 6)"}, "SEB induced PBMC": {"test_system": "SEB induced PBMC", "assay": "Luminex-based multiplex cytokine assay, SEB induced PBMC", "format": "cell-based, human", "conditions": "concentration-dependent (FIG. 7)"}}, "note": "Entries after “also recorded” stand apart in the source; their conditions may differ.", "data": [{"smiles": "O=C(CCCCc1ccc(C(=O)NCc2ccc3c(c2)CN(C2CCC(=O)NC2=O)C3=O)cc1)NO", "note": "(stereo not drawn) [Compound 4, N-((2-(2,6-dioxopiperidin-3-yl)-1-oxoisoindolin-5-yl)methyl)-4-(5-(hydroxyamino)-5-oxopentyl)benzamide]", "values": [{"measurement": "Compound-induced c-MYC degradation after pretreatment with the proteosome inhibitor bortezomib", "setting": "c-MYC; H929 cells, bortezomib pretreatment", "result": "prevented"}, {"measurement": "c-MYC in H929 cells (targeted protein degradation / expression)", "setting": "c-MYC; 0.001-10 μM, 24 hours", "result": "reduced c-MYC and HDAC expression"}, {"measurement": "c-MYC in H929 cells (targeted protein degradation / expression)", "setting": "c-MYC; 0.001-10 μM, 24 hours, listed as compound 4", "result": "degraded"}, {"measurement": "levels of c-MYC", "setting": "c-MYC; H929 or Jurkat cells, 0.001-10 μM, 24 hours", "result": "clearly reduced"}, {"measurement": "c-MYC in Jurkat cells (targeted protein degradation)", "setting": "c-MYC; Jurkat cells, 0.001-10 μM, 24 hours", "result": "degraded"}, {"measurement": "proliferation of human hematopoietic cancer cells", "setting": "[1]", "result": "selectively suppressed the proliferation"}, {"measurement": "Eos in Jurkat cells (targeted protein degradation)", "setting": "Eos", "result": "degraded"}, {"measurement": "target protein degradation", "setting": "target protein", "result": "caused target protein degradation"}, {"measurement": "CRBN in H929 cells (targeted protein degradation)", "setting": "CRBN; H929 cells", "result": "degraded"}, {"measurement": "CRBN in Jurkat cells (targeted protein degradation)", "setting": "CRBN; Jurkat cells", "result": "degraded"}, {"measurement": "Aiolos in Jurkat cells (targeted protein degradation)", "setting": "Aiolos", "result": "degraded"}, {"measurement": "GAPDH in H929 cells (expression, loading control)", "setting": "GAPDH", "result": "no effect"}, {"measurement": "GAPDH in H929 cells (expression, loading control)", "setting": "GAPDH; listed as compound 4", "result": "No effect"}, {"measurement": "GAPDH in Jurkat cells (expression, loading control)", "setting": "GAPDH; Jurkat cells", "result": "No effect"}, {"measurement": "proliferation of human solid tissue cancer cells", "setting": "[2]", "result": "selectively suppressed the proliferation"}, {"measurement": "Ikaros in H929 cells (targeted protein degradation)", "setting": "Ikaros; H929 cells", "result": "degraded"}, {"measurement": "levels of Ikaros", "setting": "Ikaros; H929 or Jurkat cells", "result": "clearly reduced"}, {"measurement": "Ikaros in Jurkat cells (targeted protein degradation / expression)", "setting": "Ikaros", "result": "reduced Ikaros expression"}, {"measurement": "Ikaros in Jurkat cells (targeted protein degradation / expression)", "setting": "Ikaros; listed as compound 4", "result": "degraded"}, {"measurement": "HDAC2 in H929 cells (targeted protein degradation / expression)", "setting": "HDAC2", "result": "reduced c-MYC and HDAC expression; also recorded: reduced HDAC2 expression"}, {"measurement": "HDAC2 in H929 cells (targeted protein degradation / expression)", "setting": "HDAC2; listed as compound 4", "result": "degraded"}, {"measurement": "levels of HDAC2", "setting": "HDAC2; H929 or Jurkat cells", "result": "clearly reduced"}, {"measurement": "HDAC2 in Jurkat cells (targeted protein degradation)", "setting": "HDAC2; Jurkat cells", "result": "degraded"}, {"measurement": "intracellular HDAC activity in human cancer cells", "setting": "HDAC", "result": "inhibit intracellular HDAC activity; also recorded: suppressed intracellular HDAC activity"}, {"measurement": "cytokine production from Poly (I:C) induced PBMC", "setting": "Poly (I:C) induced PBMC", "result": "suppressed cytokine production"}, {"measurement": "cytokine production from LPS induced PBMC", "setting": "LPS induced PBMC", "result": "suppressed cytokine production"}, {"measurement": "cytokine production from SEB induced PBMC", "setting": "SEB induced PBMC", "result": "enhanced cytokine production"}]}]}
